We go through eight sequences from patent US12565680B2, “Cancer neoantigens and their utilities in cancer vaccines and TCR-based cancer immunotherapy” (THE METHODIST HOSPITAL SYSTEM, priority 2018, dated 2026).

Holding throughout (type): cell-based, human
The test system of test [1] is T-cell clones of 135TIL. Put plainly: IFN-γ ELISA with tumor-reactive T-cell clones of 135TIL. The following applies: for percentage of CD8^+ tumor-reactive T-cell clones recognizing the neoantigen: 40 clones; for number of CD8^+ tumor-reactive T-cell clones recognizing the neoantigen: of 40 clones. The source says:
Thus, immunogenic antigens can be generated from various sources or mechanisms [such as alternative ORFs, noncoding regions (3′ and 5′ UTRs, introns, noncoding RNA)]. […] All other tumor-reactive CD4^+ T-cell clones and CD8^+ T-cell clones recognized the mutation-derived neoantigens. […] To identify these two antigens recognized by these two CD4^+ T-cell clones, an Ii-fusion cDNA library derived from 135 mel tumor cells was constructed using experimental procedures. The Ii-fusion cDNA library pools (approximately 100 cDNA clones per pool) were transfected into 293IMDR3/DP4 or 293IMDR4/DP4 cells, followed by co-culturing with CD4^+ T-cell clones (135-1C1 or 135-1E1). After 2×10^5 cDNA clones, positive cDNA library pools that stimulate two T-cell clones, respectively, were identified based on IFN-γ release by ELISA (FIG. 6B). The positive pools were then transformed into Stbl3™ Escherichia coli, and single bacteria colonies were picked for plasmid DNA isolation. The screening assays were repeated in the same APCs transfected with the single cDNA-containing plasmids, and identified three clones that were able to stimulate 135-1C1 T cells, and two clones that reacted with 135-1E1 T cells (FIG. 6C). […] The 135-1E1 T cell-reactive cDNA clones encoded the product translated from an alternative reading frame of CTAG2 (LAGE1b) (FIG. 6C and FIG. 7A). […] LAGE1 is a cancer-testis antigen, with over 80% amino acid sequence identical to NY-ESO-1 protein, which is the most immunogenic tumor antigen identified to date. To define the T cell epitopes, wee generated a series of deletions and truncations of 3′ UTR region of ADIPOR2 gene, and narrowed down T cell epitope to a 26 aa peptide-coding sequence that stimulate 135-1C1 T cell response (FIG. 7D). Using similar approach, T cell epitopes were narrowed down to a 69 aa peptide-coding sequence of the LAGE1b alternative ORF2 for 135-1E1 T-cell recognition (FIG. 7E).
Using systemic and multiple approaches, 8 cancer neoantigens were identified in 135 mel and 7 neoantigens in 136 mel. To understand the potential mechanisms that restrain the number of neoantigens that could induce T cell response, it was asked whether these neoantigens were equally recognized by T cells.
T-cell cloning and expansion were performed. Briefly, T-cell clones from 135TILs were generated by a limited dilution (0.3 cell/well) in 96-well plates. Allogeneic PBMCs from normal donors were irradiated (60 Gy) and then seeded as feeder cells (7×10^4/well) in TCM containing 35 ng/ml OKT3 (anti-hCD3 antibody) (R&D Systems) and 35 ng/ml anti-hCD28 antibody (R&D Systems). On day 1, recombinant IL-2 was added to the final concentration of 300 IU/ml. On day 5, half of the culture medium was replaced with fresh TCM containing recombinant IL-2, and then the medium was changed every other day or when the medium color turned yellow. On day 14, T-cell clones were harvested, counted, tested for tumor reactivity. Tumor reactive T-cell clones were further expanded.
96-well tissue culture plates were coated with phosphate-buffered saline (PBS, GenDEPOT) containing 50 μg/ml poly-L-lysine (Millipore Sigma) at 37° C. 10 min later, the plates were rinsed twice with PBS. Tumor cells or 293-APCs were seeded at 5×10^4/well in the 96-well plate and cultured at 37° C., 5% CO2 for at least 4 h. For plasmid transfection, 250 ng of plasmid DNA were transfected into 293-APCs per well with 0.5 μl of Lipofectamine 2000 (Thermo Fisher Scientific) according to the manufacturer's instructions and incubated at 37° C., in 5% CO2 overnight. For peptide presentation, synthesized peptides (GeneScript) were added to each well at different final concentrations from 10^2 to 10^−4 μM and incubated at 37° C., 5% CO2. The cells transfected with plasmids or pulsed with peptides were washed with TCM twice, and then cocultured with T cells (1×10^5/well). After overnight culture, 50 μl of supernatant was collected for measuring cytokine release with an ELISA assay. […]
(ELISA stands for enzyme-linked immunosorbent assay.)

Test [2] deals with 135TIL. Put plainly: Intracellular staining of IFN-γ after neoantigen peptide stimulation, 135TIL. The following applies: intracellular cytokine staining. As to the method:
(§1) T cells were stimulated by various in vitro methods, such as tumor cells, peptides or DNA encoding neoantigens, etc. and induced to release cytokines. Stimulated T cells were resuspended in 100 μl of Cytofix/Cytoperm solution (BD Biosciences) per well for microwell plates (or 250 μl for tubes) and incubated for 20 min at 4° C. for cell fixation. Fixed cells were permeabilized by washing twice in 1× Perm/Wash buffer (BD Biosciences). Then the fixed/permeabilized cells were thoroughly resuspended in 50 μl of 1× Perm/Wash buffer containing 1 μl of phycoerythrin (PE)-conjugated IFN-γ antibody (Thermo Fisher Scientific) and incubate at 4° C. for 30 min in the dark. After that the cells were washed twice with 1× Perm/Wash buffer and ready for flow cytometric analysis.

For test [3], the system named is CD4^+ T cells isolated from 136TIL. Kind of test: T-cell reactivity assay (IFN-γ ELISA): TMGs/minigenes in 293IMDR1/DP4 and 293IMDR11/DP4 cells. The following applies: 293IMDR1/DP4 cells. The text has this:
Using several different approaches (293-engineered APCs and B cells, as well as different libraries) and tumor-reactive T cells (TIL lines and clones), 6 MHC-II antigens (4 mutation-derived neoantigens and 2 derived from alternative ORF and 3′ UTR region) were identified and 3 MHC-I neoantigens in 135 mel tumor cells. It appears that the number of neoantigens recognized by T cells is rather limited, even though there are 232 somatic mutations (Table 3). To extend the findings, exome sequencing of genomic DNAs isolated from the second patient tumor (136 mel) and 136TIL cells (as a control) was performed and identified 348 somatic mutations that were unique to 136 tumor cells (FIG. 8A) (Table 4). A library was designed and constructed containing 35 TMGs (10 mutations in each TMG) in pTSX targeting expression vector based on somatic mutations. […] By contrast, no appreciable T cell activity was observed against the corresponding WT counterparts (FIG. 8C). Because ANKIB1 can be presented by both 293IMDR1/DP4 and 293IMDR11/DP4 cells (FIG. 8B), it is likely that ANKIB1 is presented by HLA-DP4 molecules for T cell recognition.
96-well tissue culture plates were coated with phosphate-buffered saline (PBS, GenDEPOT) containing 50 μg/ml poly-L-lysine (Millipore Sigma) at 37° C. 10 min later, the plates were rinsed twice with PBS. Tumor cells or 293-APCs were seeded at 5×10^4/well in the 96-well plate and cultured at 37° C., 5% CO2 for at least 4 h. For plasmid transfection, 250 ng of plasmid DNA were transfected into 293-APCs per well with 0.5 μl of Lipofectamine 2000 (Thermo Fisher Scientific) according to the manufacturer's instructions and incubated at 37° C., in 5% CO2 overnight. For peptide presentation, synthesized peptides (GeneScript) were added to each well at different final concentrations from 10^2 to 10^−4 μM and incubated at 37° C., 5% CO2. The cells transfected with plasmids or pulsed with peptides were washed with TCM twice, and then cocultured with T cells (1×10^5/well). After overnight culture, 50 μl of supernatant was collected for measuring cytokine release with an ELISA assay.
96-well microplate (Greiner Bio-one) was coated with 50 μl of PBS containing anti-human IFN-γ (Thermo Fisher Scientific, primary antibody, 1 μg/ml) per well and incubated at 4° C. overnight. […] The plate was read at OD450 nm. The concentration of IFN-γ was calculated by standard reading.
The screening of antigen-specific T cells against TMGs were performed as described in T-cell reactivity assay above. […] The transfected cells were cocultured with tumor-reactive T cells overnight and the IFN-γ release in the supernatant in each well was determined by ELISA on the second day.

The subject of test [4] is 136TIL. Put plainly: Intracellular staining of IFN-γ after neoantigen peptide stimulation, 136TIL. The following applies: for neoantigen-specific CD4^+ T cells in the total T cell population: fibroblasts loaded with peptide.
Description: Among them, MAPK9 and ANKIB1 neoantigen-specific CD4^+ T cells accounted for 14.3% and 5.2% in the total T cell population, which accounted for 58% and 21% in the total tumor-reactive CD4^+ T cell population, respectively (FIG. 11B). By contrast, other neoantigen-specific CD4^+ T cells accounted for only a small percentage of T cells in the total T cell population (FIG. 11A). Since HHAT is only one MHC-I neoantigen, it was shown that HHAT neoantigen-specific CD8^+ T cells accounted for 10.6% in the total T cell population when stimulation with HHAT peptide (FIG. 11A), which accounted for 73% in the total tumor-reactive CD8^+ T cell population (FIG. 11B).
as §1

Test [5] relates to CD4^+136-C13 and 136-C22 T cell clones. Put plainly: TMG/minigene screening with T cell clones of 136TIL. The following applies: 293IMDR1/DP4 cells. On the procedure: As shown in 135 mel, ADIPOR2 and LAGE1b were identified as tumor antigens recognized by T cell clones that were in relatively low abundance in the bulk TIL population. Thus, T cell clones generated from 136TILs were tested for their ability to recognize the newly identified as well as unknown neoantigens. 293IMDR1/DP4 and 293IMDR11/DP4 cells were transfected with 35 TMGs, respectively, followed by co-culturing with T cells clones for overnight.

For “GSGEKVAGRVIVKVCEVTRVKAVRI [TXNIP, MHC-I neoantigen of patient #135]”, in test [1], the “percentage of CD8^+ tumor-reactive T-cell clones recognizing the neoantigen” value stood at 20% and the “number of CD8^+ tumor-reactive T-cell clones recognizing the neoantigen” value is reported as 8. The “CD8^+ T cells recognizing the neoantigen in the total T cell population” value in test [2] was 2.95%.
As for “KDAARPAYWVPDYEILHCHNCRKEF [ZFYVE1, MHC-II neoantigen of patient #136]”, the “T cell recognition, IFN-γ release by CD4^+ 136TIL” value (“T cell recognition, IFN-γ release” for short) in test [3] is given as “capable of stimulating CD4^+ T cells for IFN-γ release”.
As to “LLKTRRILKCSYLYGFFLEPKSTKK [ANKIB1, MHC-II neoantigen of patient #136]”, the “T cell recognition, IFN-γ release” value in test [3] is given as “capable of stimulating CD4^+ T cells for IFN-γ release”. Further, in test [4], the “share in the total tumor-reactive CD4^+ T cell population” value is given as 21% and the “neoantigen-specific CD4^+ T cells in the total T cell population” value is 5.2%.
For the sequence “LLLAGYLAQQYLLLPTPKVIGIDLG [HSPA13, MHC-II neoantigen of patient #136 recognized by clone C22]”, in test [5], the “recognition by T cell clones 136-C13 (TMG13) and 136-C22 (TMG8)” value was “MHC-II neoantigens”.
The same measure, in the same setting: next, “PFYLGHTIKSGDFEYVGMEGGIVLS [C1GALT1C1, MHC-II neoantigen of patient #136 recognized by clone C13]”: “MHC-II neoantigens”.
On to “RLKASLDRPFTNSESAFYSIVGLSS [RPN2, MHC-I neoantigen of patient #135]”, for which, in test [1], the “percentage of CD8^+ tumor-reactive T-cell clones recognizing the neoantigen” value was 12.5% and the “number of CD8^+ tumor-reactive T-cell clones recognizing the neoantigen” value came out at 5. Also, the “CD8^+ T cells recognizing the neoantigen in the total T cell population” value in test [2] was determined as 1.54%.
“SMPLWDFQGSTMRTSQYVRLTPDER [LMAN2, MHC-II neoantigen of patient #136]”: the “T cell recognition, IFN-γ release” value in test [3] is reported as “capable of stimulating CD4^+ T cells for IFN-γ release”.
With “YPGIKFEELFPDCIFPSESERDKIK [MAPK9, MHC-II neoantigen of patient #136]”, the “T cell recognition, IFN-γ release” value in test [3] was “capable of stimulating CD4^+ T cells for IFN-γ release”. In addition, in test [4], the “share in the total tumor-reactive CD4^+ T cell population” value is listed as 58% and the “neoantigen-specific CD4^+ T cells in the total T cell population” value is on record as 14.3%.
